Key:
NAD+ levels in the blood = assay: Blood NAD+ level in subjects during daily oral dosing (Example 1); format: in vivo, human
Procedure: Study Design • In this study, safety, pharmacokinetics, and pharmacodynamics of NAM, NA, NMN, and NR were studied. Before receiving the first oral dose of NAM, NA, NMN, and NR formulated as a dietary supplement, but after screening and informed consent, eligible subjects underwent blood and urine samplings on Day 1 to establish baseline levels of NAD+ and other compounds. Subsequently, each subject received one of the following dosages: • 1. daily doses of 1000 mg NR for 7 days: • 2. daily doses of NR 300 mg for 14 days and then added NAM 1000 mg for 7 days; • 3. daily doses of 300 mg NR for 7 days; • 4. daily doses of 1000 mg NAD+ for 7 days; • 5. daily doses of 1000 mg NAM for 14 days: • 6. daily doses of 300 mg NA for 14 days: • 7. daily doses of 1000 mg NMN for 7 days: • 8. daily doses of NAM, NA, NMN, and NR, one at a time, including 300 mg NA and 300 mg NR for 11 days followed by 300 mg NA, 300 mg NR, and 1000 mg NAM for 11 days; • 9. daily doses of 300 mg NR and 1000 mg NAM for 9 days; • 10. daily doses of NAM, NA, and NR, one at a time, including 300 mg NA and 300 mg NR for 11 days followed by 300 mg NA, 300 mg NR, and 1000 mg NAM for 11 days. • Each subject underwent serial blood and urine sampling during the daily dosing of NAM, NA, NMN, and NR, or a mixture of the foregoing.
Inclusion Criteria: • 1. Healthy male or female, age>18 years. • 2. Signed, informed consent. • 3. […] Healthy as determined by laboratory results and medical history. • 5. Agrees to maintain current level of physical activity throughout the study. • 6. Agrees to avoid study compounds for 30 days prior to enrollment and during the study 7. • 7. Agrees to avoid nutritional yeast, whey proteins, energy drinks, pomegranate, pomegranate juice, grapefruit, grapefruit juice and alcohol 7 days prior to enrollment and during study • 8. Willingness and ability to comply with scheduled visits, cell phone calls, treatment plans, laboratory tests, and completion of other study procedures as specified in the protocol.
Exclusion Criteria: • 1. Women who were pregnant, breastfeeding, or planning to became pregnant during the course of the trial. • 2. Subjects who were smokers • 3. Unstable medical conditions as determined by the Investigator • 4. Immunocompromised individuals such as subjects that had undergone organ transplantation or subjects diagnosed with human immunodeficiency virus (HIV) • 5. Clinically significant abnormal lab results at screening (e.g., AST, ALT or ALP>2×ULN, and/or bilirubin>1×ULN) • 6. Subjects who had planned surgery during the course of the trial • 7. History of or current diagnosis of any cancer (except for successfully treated basal cell carcinoma) diagnosed less than 5 years prior to screening. Subjects with cancer in full remission more than 5 years after diagnosis were acceptable • 8. History of blood/bleeding disorders • 9. Blood donation in the past 2 months • 10. Alcohol abuse (>2 standard alcoholic drinks per day) or drug abuse within the past 6 months • 11. Participation in a clinical research trial within 30 days prior to randomization • 12. Allergy or sensitivity to study supplement ingredients provided during the study • 13. Individuals who were cognitively impaired and/or who were unable to give informed consent. • 14. Any other condition which in the Investigator's opinion may adversely affect the subject's ability to complete the study or its measures or which may pose significant risk to the subject
Clinical Data and Sample Collections • 1. Height, weight, temperature, BP, heart rate, demographics • 2. Physical examination • 3. Medical history, concomitant dietary supplements (if any) and concomitant medications (if any) • 4.

[1] = compared with NAM; cited from earlier work
[2] = after NMN supplementation; through the liver and bloodstream intact into muscle; cited from earlier work
[3] = murine plasma or fetal-bovine-serum containing culture medium; cited from earlier work

Row | Molecule | NAD+ level in response to intake (NAD+ levels in the blood; 300 mg daily for 14 days) | NAD+ level in response to intake (NAD+ levels in the blood; 1000 mg daily for 7 days) | further results
1 | O=C(O)c1cccnc1 [NA, nicotinic acid] | increasing NAD+ levels | – | –
2 | NC(=O)c1cccnc1 [NAM, nicotinamide] | – | – | NAD+ level in response to intake (NAD+ levels in the blood; 1000 mg daily for 14 days): increasing NAD+ levels
3 | NC(=O)c1ccc[n+]([C@@H]2O[C@H](COP(=O)([O-])O)[C@@H](O)[C@H]2O)c1 [NMN, nicotinamide mononucleotide] | – | increasing NAD+ levels | Retention in the body [1]: retained in the body for longer than NAM; Time to metabolism to NAD+ [2]: ≤ 30 min
4 | NC(=O)c1ccc[n+]([C@@H]2O[C@H](CO)[C@@H](O)[C@H]2O)c1 [NR, nicotinamide riboside] | increasing NAD+ level | increasing NAD+ levels | Stability [3]: can quickly degrade into NAM
5 | Nicotinamide adenine dinucleotide [NAD+] | – | increasing NAD+ level | NAD+ level in response to intake (NAD+ levels in the blood; 1000 mg daily for 7 days, listed as NAD): increasing NAD+ levels
